Columns and labels:
[1] = target: SRSF protein kinase 1 (Homo sapiens) (UniProt Q96SB4); conditions: Compound concentration 1000.0 nM
[2] = target: Proto-oncogene tyrosine-protein kinase ROS (Homo sapiens) (UniProt P08922); conditions: Compound concentration 1000.0 nM
[3] = target: T1, Serine/threonine-protein kinase Sgk3 (Homo sapiens) (UniProt Q96BR1); conditions: Compound concentration 1000.0 nM
T1 sequence (whole entry): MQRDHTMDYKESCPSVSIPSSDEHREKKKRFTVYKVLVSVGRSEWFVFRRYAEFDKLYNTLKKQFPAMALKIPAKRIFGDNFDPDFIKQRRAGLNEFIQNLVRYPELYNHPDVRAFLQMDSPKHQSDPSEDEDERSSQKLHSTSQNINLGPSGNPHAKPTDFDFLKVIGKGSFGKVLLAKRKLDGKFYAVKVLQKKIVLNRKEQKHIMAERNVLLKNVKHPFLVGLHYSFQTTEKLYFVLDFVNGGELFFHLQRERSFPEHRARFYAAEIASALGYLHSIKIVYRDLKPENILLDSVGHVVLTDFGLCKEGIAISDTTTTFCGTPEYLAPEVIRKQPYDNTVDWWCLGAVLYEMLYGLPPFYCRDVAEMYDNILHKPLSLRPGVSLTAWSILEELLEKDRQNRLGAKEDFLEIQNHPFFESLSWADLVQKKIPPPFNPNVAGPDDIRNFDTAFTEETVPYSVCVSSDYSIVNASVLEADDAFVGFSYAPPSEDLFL

[4] = tested on: Receptor-type tyrosine-protein kinase FLT3 (Homo sapiens), P36888 [D835V]; conditions: Compound concentration 1000.0 nM
[5] = target: RAC-alpha serine/threonine-protein kinase (Homo sapiens) (UniProt P31749); conditions: Compound concentration 1000.0 nM
[6] = target: Sigma intracellular receptor 2 (Homo sapiens, UniProt Q5BJF2); conditions: Compound concentration 10.0 uM
[7] = target: Calcium/calmodulin-dependent protein kinase kinase 2 (Homo sapiens) (UniProt Q96RR4); conditions: Compound concentration 1000.0 nM
[8] = target: Mitogen-activated protein kinase kinase kinase 15 (Homo sapiens) (UniProt Q6ZN16); conditions: Compound concentration 1000.0 nM
[9] = target: Non-receptor tyrosine-protein kinase TYK2 (Homo sapiens) (UniProt P29597); conditions: Compound concentration 1000.0 nM
[10] = target: T2, Myosin light chain kinase (Homo sapiens) (UniProt Q32MK0); conditions: Compound concentration 1000.0 nM
T2 sequence (whole entry): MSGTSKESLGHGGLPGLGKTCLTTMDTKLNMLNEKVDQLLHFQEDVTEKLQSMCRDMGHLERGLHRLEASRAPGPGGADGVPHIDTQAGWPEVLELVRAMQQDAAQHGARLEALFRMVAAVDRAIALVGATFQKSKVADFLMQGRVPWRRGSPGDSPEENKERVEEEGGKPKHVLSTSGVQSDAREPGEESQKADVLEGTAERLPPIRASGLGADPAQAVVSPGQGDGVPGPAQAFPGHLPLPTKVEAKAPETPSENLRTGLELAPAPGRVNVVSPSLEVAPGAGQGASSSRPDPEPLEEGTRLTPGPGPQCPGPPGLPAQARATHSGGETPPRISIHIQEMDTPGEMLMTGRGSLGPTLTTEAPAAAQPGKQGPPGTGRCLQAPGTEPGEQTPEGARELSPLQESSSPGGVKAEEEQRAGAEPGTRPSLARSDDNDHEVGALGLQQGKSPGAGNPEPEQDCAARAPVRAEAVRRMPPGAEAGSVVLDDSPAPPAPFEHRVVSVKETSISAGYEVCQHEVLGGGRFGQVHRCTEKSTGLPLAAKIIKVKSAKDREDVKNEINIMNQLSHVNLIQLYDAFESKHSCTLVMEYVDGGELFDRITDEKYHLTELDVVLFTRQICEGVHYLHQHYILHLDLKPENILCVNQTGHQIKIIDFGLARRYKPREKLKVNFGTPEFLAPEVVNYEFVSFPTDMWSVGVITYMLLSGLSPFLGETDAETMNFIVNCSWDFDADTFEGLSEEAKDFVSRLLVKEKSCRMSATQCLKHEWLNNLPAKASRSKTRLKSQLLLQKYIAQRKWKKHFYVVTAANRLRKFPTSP

[11] = target: Proto-oncogene tyrosine-protein kinase Src (Homo sapiens) (UniProt P12931); conditions: Compound concentration 1000.0 nM
[12] = target: Glycogen synthase kinase-3 alpha (Homo sapiens) (UniProt P49840); conditions: Compound concentration 1000.0 nM
[13] = target: Serine/threonine-protein kinase 25 (Homo sapiens) (UniProt O00506); conditions: Compound concentration 1000.0 nM
[14] = target: Receptor tyrosine-protein kinase erbB-4 (Homo sapiens) (UniProt Q15303); conditions: Compound concentration 1000.0 nM
[15] = target: TGF-beta receptor type-2 (Homo sapiens) (UniProt P37173); conditions: Compound concentration 1000.0 nM
[16] = target: T3, Rhodopsin kinase GRK1 (Homo sapiens) (UniProt Q15835); conditions: Compound concentration 1000.0 nM
T3 sequence (whole entry): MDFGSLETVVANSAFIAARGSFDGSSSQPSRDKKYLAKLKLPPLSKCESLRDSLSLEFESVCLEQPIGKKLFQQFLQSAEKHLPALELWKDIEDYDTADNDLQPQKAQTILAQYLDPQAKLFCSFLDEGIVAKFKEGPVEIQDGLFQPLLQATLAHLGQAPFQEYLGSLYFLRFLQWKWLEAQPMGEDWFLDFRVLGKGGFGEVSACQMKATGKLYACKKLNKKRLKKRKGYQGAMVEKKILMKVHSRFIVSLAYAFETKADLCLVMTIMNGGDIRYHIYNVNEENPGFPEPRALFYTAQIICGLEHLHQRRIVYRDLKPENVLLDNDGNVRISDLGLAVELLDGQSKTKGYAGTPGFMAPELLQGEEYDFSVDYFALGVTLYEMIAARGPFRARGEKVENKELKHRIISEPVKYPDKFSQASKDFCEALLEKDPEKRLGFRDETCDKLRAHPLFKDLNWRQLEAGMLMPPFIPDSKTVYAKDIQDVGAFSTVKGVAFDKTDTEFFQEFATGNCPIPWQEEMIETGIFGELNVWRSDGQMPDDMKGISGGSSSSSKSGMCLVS

Sequence of Sigma intracellular receptor 2 (Q5BJF2 whole entry): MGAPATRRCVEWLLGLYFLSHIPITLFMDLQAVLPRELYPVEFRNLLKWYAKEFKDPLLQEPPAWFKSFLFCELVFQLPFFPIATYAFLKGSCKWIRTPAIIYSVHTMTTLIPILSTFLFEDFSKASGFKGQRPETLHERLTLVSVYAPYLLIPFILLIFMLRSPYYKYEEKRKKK
Sequence of Proto-oncogene tyrosine-protein kinase Src (Homo sapiens) (P12931 2-536 limits assumed): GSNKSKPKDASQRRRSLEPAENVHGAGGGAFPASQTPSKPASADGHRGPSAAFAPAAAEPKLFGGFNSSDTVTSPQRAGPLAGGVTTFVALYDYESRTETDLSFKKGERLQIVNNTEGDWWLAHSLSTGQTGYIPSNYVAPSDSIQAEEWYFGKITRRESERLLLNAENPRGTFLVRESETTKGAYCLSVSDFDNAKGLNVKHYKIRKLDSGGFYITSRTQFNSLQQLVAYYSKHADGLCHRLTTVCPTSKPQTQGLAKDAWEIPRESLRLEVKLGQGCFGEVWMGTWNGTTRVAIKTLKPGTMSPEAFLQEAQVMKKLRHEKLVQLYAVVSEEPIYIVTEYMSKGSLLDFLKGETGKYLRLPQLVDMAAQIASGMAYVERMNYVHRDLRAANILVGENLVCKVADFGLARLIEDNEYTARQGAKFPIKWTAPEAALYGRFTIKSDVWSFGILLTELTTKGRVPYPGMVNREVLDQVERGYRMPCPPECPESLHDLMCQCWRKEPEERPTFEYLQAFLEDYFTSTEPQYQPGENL
Sequence of Proto-oncogene tyrosine-protein kinase ROS (Homo sapiens) (P08922 whole entry): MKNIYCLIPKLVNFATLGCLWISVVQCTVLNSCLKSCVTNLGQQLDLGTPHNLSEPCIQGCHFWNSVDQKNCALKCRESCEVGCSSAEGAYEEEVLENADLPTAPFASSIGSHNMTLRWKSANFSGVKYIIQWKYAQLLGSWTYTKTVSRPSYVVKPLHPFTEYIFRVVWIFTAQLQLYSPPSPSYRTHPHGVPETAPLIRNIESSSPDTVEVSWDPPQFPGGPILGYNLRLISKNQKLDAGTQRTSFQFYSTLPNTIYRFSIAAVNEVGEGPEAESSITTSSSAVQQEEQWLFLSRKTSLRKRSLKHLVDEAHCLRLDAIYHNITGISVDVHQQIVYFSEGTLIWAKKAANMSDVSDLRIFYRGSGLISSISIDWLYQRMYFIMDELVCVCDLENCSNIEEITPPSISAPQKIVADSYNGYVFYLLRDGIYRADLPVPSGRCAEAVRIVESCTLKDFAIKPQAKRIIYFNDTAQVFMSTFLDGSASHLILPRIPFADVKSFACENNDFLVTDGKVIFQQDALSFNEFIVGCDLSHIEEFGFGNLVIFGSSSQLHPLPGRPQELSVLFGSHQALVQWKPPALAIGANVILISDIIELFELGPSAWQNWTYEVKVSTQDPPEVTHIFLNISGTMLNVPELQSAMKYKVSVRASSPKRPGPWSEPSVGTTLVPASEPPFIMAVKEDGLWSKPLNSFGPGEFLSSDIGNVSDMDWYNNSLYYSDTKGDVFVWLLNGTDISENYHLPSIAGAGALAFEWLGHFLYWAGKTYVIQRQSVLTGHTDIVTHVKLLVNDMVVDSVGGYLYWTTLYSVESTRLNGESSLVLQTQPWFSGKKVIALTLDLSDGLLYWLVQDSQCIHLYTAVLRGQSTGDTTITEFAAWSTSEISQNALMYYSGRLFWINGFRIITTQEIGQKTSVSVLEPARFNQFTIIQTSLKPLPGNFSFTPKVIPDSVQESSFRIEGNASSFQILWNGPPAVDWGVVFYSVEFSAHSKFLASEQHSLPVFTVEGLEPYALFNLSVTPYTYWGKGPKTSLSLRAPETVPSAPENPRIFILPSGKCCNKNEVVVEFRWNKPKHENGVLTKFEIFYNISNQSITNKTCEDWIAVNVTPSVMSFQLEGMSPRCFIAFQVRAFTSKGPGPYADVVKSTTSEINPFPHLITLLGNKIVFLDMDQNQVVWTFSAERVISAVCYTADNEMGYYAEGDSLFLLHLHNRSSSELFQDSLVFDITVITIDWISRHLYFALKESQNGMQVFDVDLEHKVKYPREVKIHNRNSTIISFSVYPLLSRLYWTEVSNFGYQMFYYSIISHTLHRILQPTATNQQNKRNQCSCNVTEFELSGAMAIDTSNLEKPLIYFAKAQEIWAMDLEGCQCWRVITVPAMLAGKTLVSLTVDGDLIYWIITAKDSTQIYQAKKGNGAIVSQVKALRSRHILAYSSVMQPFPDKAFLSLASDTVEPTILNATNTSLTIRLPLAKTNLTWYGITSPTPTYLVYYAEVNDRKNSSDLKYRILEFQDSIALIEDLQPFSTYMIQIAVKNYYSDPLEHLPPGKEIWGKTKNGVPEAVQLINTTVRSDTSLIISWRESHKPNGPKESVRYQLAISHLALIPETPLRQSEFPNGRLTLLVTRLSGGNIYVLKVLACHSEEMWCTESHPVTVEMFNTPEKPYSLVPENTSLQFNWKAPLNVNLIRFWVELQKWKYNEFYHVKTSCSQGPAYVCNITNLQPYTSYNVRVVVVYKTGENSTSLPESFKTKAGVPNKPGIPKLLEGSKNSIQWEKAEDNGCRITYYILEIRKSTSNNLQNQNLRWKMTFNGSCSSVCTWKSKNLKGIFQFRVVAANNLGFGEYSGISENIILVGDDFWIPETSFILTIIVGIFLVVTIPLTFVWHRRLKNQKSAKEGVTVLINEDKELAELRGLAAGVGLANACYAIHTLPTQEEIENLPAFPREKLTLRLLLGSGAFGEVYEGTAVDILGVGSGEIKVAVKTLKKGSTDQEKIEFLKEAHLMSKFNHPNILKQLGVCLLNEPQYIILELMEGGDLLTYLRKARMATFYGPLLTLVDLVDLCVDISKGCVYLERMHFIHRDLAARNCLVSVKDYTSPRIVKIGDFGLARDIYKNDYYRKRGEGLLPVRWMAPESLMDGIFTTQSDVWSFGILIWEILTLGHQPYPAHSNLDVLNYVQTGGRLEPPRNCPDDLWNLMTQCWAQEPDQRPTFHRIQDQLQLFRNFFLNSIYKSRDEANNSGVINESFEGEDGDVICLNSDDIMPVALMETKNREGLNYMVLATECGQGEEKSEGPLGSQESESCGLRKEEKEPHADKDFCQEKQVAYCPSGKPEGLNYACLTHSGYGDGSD
Sequence of Serine/threonine-protein kinase 25 (Homo sapiens) (O00506 whole entry, looked up): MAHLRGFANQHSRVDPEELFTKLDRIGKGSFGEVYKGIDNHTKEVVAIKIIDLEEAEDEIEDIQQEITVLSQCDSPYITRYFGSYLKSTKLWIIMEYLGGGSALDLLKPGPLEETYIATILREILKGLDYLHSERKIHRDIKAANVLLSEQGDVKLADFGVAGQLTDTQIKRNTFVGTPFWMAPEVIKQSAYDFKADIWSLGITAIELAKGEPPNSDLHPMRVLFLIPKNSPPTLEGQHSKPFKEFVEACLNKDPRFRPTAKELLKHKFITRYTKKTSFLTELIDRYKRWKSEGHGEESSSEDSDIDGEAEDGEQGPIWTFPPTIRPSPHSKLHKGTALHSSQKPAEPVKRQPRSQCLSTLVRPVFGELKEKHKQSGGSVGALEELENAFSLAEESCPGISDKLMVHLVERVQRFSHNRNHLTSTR
Sequence of Receptor tyrosine-protein kinase erbB-4 (Homo sapiens) (Q15303 whole entry): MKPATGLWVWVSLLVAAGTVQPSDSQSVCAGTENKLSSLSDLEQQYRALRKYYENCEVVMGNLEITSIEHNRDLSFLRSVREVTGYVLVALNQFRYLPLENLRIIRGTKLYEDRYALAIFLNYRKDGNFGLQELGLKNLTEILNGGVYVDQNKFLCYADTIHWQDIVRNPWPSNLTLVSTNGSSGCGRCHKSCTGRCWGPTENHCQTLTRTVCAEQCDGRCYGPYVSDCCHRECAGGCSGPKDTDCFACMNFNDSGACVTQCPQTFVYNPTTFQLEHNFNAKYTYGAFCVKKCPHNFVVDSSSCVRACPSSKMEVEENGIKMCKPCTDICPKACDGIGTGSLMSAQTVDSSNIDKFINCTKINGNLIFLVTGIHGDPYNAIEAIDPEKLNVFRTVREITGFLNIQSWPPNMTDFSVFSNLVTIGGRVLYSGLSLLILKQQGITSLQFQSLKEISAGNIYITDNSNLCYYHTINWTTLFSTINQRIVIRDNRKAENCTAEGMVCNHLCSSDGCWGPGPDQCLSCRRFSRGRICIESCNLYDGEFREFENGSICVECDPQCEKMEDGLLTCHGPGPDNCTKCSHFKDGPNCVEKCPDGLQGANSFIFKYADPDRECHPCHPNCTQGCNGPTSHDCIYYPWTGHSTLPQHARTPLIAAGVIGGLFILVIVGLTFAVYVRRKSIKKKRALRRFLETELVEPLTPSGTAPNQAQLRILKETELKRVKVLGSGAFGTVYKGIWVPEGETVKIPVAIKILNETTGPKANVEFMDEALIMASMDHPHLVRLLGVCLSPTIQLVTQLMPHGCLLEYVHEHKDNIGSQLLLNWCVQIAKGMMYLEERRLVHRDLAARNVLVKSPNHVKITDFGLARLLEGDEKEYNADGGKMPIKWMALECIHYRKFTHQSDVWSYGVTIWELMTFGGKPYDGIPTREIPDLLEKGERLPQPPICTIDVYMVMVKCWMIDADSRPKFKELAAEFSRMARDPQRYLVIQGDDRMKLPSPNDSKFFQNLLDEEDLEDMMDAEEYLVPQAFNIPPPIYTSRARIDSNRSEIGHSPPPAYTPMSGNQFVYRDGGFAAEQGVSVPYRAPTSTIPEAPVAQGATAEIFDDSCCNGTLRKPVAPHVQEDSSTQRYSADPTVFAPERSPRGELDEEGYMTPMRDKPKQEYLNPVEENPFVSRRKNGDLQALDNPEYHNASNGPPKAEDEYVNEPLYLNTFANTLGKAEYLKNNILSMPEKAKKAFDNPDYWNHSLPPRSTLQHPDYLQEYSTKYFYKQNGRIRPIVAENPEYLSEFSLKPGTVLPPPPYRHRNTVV

| Structure (SMILES) | residual activity [1] [%] | residual activity [2] [%] | residual activity [3] [%] | residual activity [4] [%] | residual activity [5] [%] | inhibition [6] [%] | residual activity [7] [%] | residual activity [8] [%] | residual activity [9] [%] | residual activity [10] [%] | residual activity [11] [%] | residual activity [12] [%] | residual activity [13] [%] | residual activity [14] [%] | residual activity [15] [%] | residual activity [16] [%] |
| --- | --- | --- | --- | --- | --- | --- | --- | --- | --- | --- | --- | --- | --- | --- | --- | --- |
| Cc1nc(C2CCN(C(=O)c3ccc(OC(F)(F)F)cc3N)CC2)c2ncc(N3CCN(C)CC3)cc2n1 [BAY-693] | 79 | 92 | 93 | 79 | 100 | 51.4 | 100 | 92 | 100 | 100 | 99 | 85 | 100 | 100 | 93 | 100 |
| CN1CCN(c2cnc3c(C4CCN(C(=O)c5ccc(OC(F)(F)F)cc5N)CC4)ncnc3c2)CC1 [BAY-885] | 88 | 100 | 100 | 90 | 100 | 30.9 | 100 | 95 | 93 | 82 | 100 | 100 | 92 | 79 | 88 | 96 |
